Assay results taken from the supplement of paper PMC10307832.

Assays:
Experiment in all cases: relative viability (nuclei count vs DMSO), 5 days (fraction); higher = more cells survive
Tipifarnib = compound: Cn1cncc1[C@@](N)(c1ccc(Cl)cc1)c1ccc2c(c1)c(-c1cccc(Cl)c1)cc(=O)n2C [Tipifarnib]
Method in brief: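 Viability was defined as treated-well nuclei divided by vehicle-well nuclei, with the median taken over replicate plates. Cells from lung cancer lines sat overnight at 37 °C in 1536-well plates, received five √10-spaced library-drug doses by pinning on vehicle-anchored plates, and grew 5 days without medium change before one-step fixation, permeabilisation and Hoechst staining, 4× imaging and MetaXpress nuclear counts. Only plates with control CV under 25% and at least one doubling were kept.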

Tipifarnib + Luminespib = compound: Cn1cncc1[C@@](N)(c1ccc(Cl)cc1)c1ccc2c(c1)c(-c1cccc(Cl)c1)cc(=O)n2C [Tipifarnib] + CCNC(=O)c1noc(-c2cc(C(C)C)c(O)cc2O)c1-c1ccc(CN2CCOCC2)cc1 [Luminespib] (partner 0.01 µM)
Method in brief: (§1)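 Lung cancer cell lines were pin-tool dosed in 1536-well plates on the day after seeding, with either a lone drug or a fixed anchor-drug dose plus five library-drug doses (not always all listed) in √10 steps. Nuclei were counted on 4× images after 5 days. Relative viability is the ratio of treated-well to vehicle-well nuclei counts, with each value a median of duplicate plates.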

Tipifarnib + Foretinib = compound: Cn1cncc1[C@@](N)(c1ccc(Cl)cc1)c1ccc2c(c1)c(-c1cccc(Cl)c1)cc(=O)n2C [Tipifarnib] + COc1cc2c(Oc3ccc(NC(=O)C4(C(=O)Nc5ccc(F)cc5)CC4)cc3F)ccnc2cc1OCCCN1CCOCC1 [Foretinib] (partner 0.25 µM)
Method in brief: as §1

Tipifarnib + OSI-027 = compound: Cn1cncc1[C@@](N)(c1ccc(Cl)cc1)c1ccc2c(c1)c(-c1cccc(Cl)c1)cc(=O)n2C [Tipifarnib] + COc1cccc2cc(-c3nc([C@H]4CC[C@H](C(=O)O)CC4)n4ncnc(N)c34)[nH]c12 [OSI-027] (partner 0.5 µM)
Method in brief: as §1

Tipifarnib + Tozasertib = compound: Cn1cncc1[C@@](N)(c1ccc(Cl)cc1)c1ccc2c(c1)c(-c1cccc(Cl)c1)cc(=O)n2C [Tipifarnib] + Cc1cc(Nc2cc(N3CCN(C)CC3)nc(Sc3ccc(NC(=O)C4CC4)cc3)n2)n[nH]1 [Tozasertib] (partner 0.1 µM)
Method in brief: as §1

Tipifarnib + Dasatinib = compound: Cn1cncc1[C@@](N)(c1ccc(Cl)cc1)c1ccc2c(c1)c(-c1cccc(Cl)c1)cc(=O)n2C [Tipifarnib] + Cc1nc(Nc2ncc(C(=O)Nc3c(C)cccc3Cl)s2)cc(N2CCN(CCO)CC2)n1 [Dasatinib] (partner 0.075 µM)
Method in brief: as §1

Tipifarnib + Phenformin = compound: Cn1cncc1[C@@](N)(c1ccc(Cl)cc1)c1ccc2c(c1)c(-c1cccc(Cl)c1)cc(=O)n2C [Tipifarnib] + N=C(N)NC(=N)NCCc1ccccc1 [Phenformin] (partner 250 µM)
Method in brief: as §1

Tipifarnib + Trametinib = compound: Cn1cncc1[C@@](N)(c1ccc(Cl)cc1)c1ccc2c(c1)c(-c1cccc(Cl)c1)cc(=O)n2C [Tipifarnib] + CC(=O)Nc1cccc(-n2c(=O)n(C3CC3)c(=O)c3c(Nc4ccc(I)cc4F)n(C)c(=O)c(C)c32)c1 [Trametinib] (partner 0.02 µM)
Method in brief: as §1

Tipifarnib + Palbociclib = compound: Cn1cncc1[C@@](N)(c1ccc(Cl)cc1)c1ccc2c(c1)c(-c1cccc(Cl)c1)cc(=O)n2C [Tipifarnib] + CC(=O)c1c(C)c2cnc(Nc3ccc(N4CCNCC4)cn3)nc2n(C2CCCC2)c1=O [Palbociclib] (partner 0.5 µM)
Method in brief: as §1

Tipifarnib + AZD7762 = compound: Cn1cncc1[C@@](N)(c1ccc(Cl)cc1)c1ccc2c(c1)c(-c1cccc(Cl)c1)cc(=O)n2C [Tipifarnib] + NC(=O)Nc1cc(-c2cccc(F)c2)sc1C(=O)N[C@H]1CCCNC1 [AZD7762] (partner 0.2 µM)
Method in brief: as §1

Tipifarnib + Pemetrexed = compound: Cn1cncc1[C@@](N)(c1ccc(Cl)cc1)c1ccc2c(c1)c(-c1cccc(Cl)c1)cc(=O)n2C [Tipifarnib] + Nc1nc2[nH]cc(CCc3ccc(C(=O)N[C@@H](CCC(=O)O)C(=O)O)cc3)c2c(=O)[nH]1 [Pemetrexed] (partner 0.2 µM)
Method in brief: as §1

Tipifarnib + Decitabine = compound: Cn1cncc1[C@@](N)(c1ccc(Cl)cc1)c1ccc2c(c1)c(-c1cccc(Cl)c1)cc(=O)n2C [Tipifarnib] + Nc1ncn([C@H]2C[C@H](O)[C@@H](CO)O2)c(=O)n1 [Decitabine] (partner 2 µM)
Method in brief: as §1

Tipifarnib + Vorinostat = compound: Cn1cncc1[C@@](N)(c1ccc(Cl)cc1)c1ccc2c(c1)c(-c1cccc(Cl)c1)cc(=O)n2C [Tipifarnib] + O=C(CCCCCCC(=O)Nc1ccccc1)NO [Vorinostat] (partner 1 µM)
Method in brief: as §1

Tipifarnib + Olaparib = compound: Cn1cncc1[C@@](N)(c1ccc(Cl)cc1)c1ccc2c(c1)c(-c1cccc(Cl)c1)cc(=O)n2C [Tipifarnib] + O=C(c1cc(Cc2n[nH]c(=O)c3ccccc23)ccc1F)N1CCN(C(=O)C2CC2)CC1 [Olaparib] (partner 8 µM)
Method in brief: as §1

NCI-H1623 showed a relative viability (Tipifarnib; 0.01 µM) of 1.07, a relative viability (Tipifarnib; 0.03162 µM) of 1.12 and a relative viability (Tipifarnib; 0.1 µM) of 0.946. The relative viability (Tipifarnib; 0.3162 µM) was 0.886, the relative viability (Tipifarnib; 1 µM) was 0.818 and the relative viability (Tipifarnib + Luminespib; first compound 0.01 µM) was 0.647. The relative viability (Tipifarnib + Luminespib; first compound 0.03162 µM) was 0.37, the relative viability (Tipifarnib + Luminespib; first compound 0.1 µM) was 0.411 and the relative viability (Tipifarnib + Luminespib; first compound 0.3162 µM) was 0.412. It also gave a relative viability (Tipifarnib + Luminespib; first compound 1 µM) of 0.325, a relative viability (Tipifarnib + Foretinib; first compound 0.01 µM) of 0.904 and a relative viability (Tipifarnib + Foretinib; first compound 0.03162 µM) of 0.954. For the same cell line, the relative viability (Tipifarnib + Foretinib; first compound 0.1 µM) was 0.911, the relative viability (Tipifarnib + Foretinib; first compound 0.3162 µM) was 0.765 and the relative viability (Tipifarnib + Foretinib; first compound 1 µM) was 0.587. For the same cell line, the relative viability (Tipifarnib + OSI-027; first compound 0.01 µM) was 0.4, the relative viability (Tipifarnib + OSI-027; first compound 0.03162 µM) was 0.426 and the relative viability (Tipifarnib + OSI-027; first compound 0.1 µM) was 0.418. It also gave a relative viability (Tipifarnib + OSI-027; first compound 0.3162 µM) of 0.361, a relative viability (Tipifarnib + OSI-027; first compound 1 µM) of 0.319 and a relative viability (Tipifarnib + Tozasertib; first compound 0.01 µM) of 0.427. It also gave a relative viability (Tipifarnib + Tozasertib; first compound 0.03162 µM) of 0.39, a relative viability (Tipifarnib + Tozasertib; first compound 0.1 µM) of 0.441 and a relative viability (Tipifarnib + Tozasertib; first compound 0.3162 µM) of 0.413. It also gave a relative viability (Tipifarnib + Tozasertib; first compound 1 µM) of 0.368, a relative viability (Tipifarnib + Dasatinib; first compound 0.01 µM) of 0.547 and a relative viability (Tipifarnib + Dasatinib; first compound 0.03162 µM) of 0.493. The relative viability (Tipifarnib + Dasatinib; first compound 0.1 µM) was 0.551, the relative viability (Tipifarnib + Dasatinib; first compound 0.3162 µM) was 0.583 and the relative viability (Tipifarnib + Dasatinib; first compound 1 µM) was 0.293. The relative viability (Tipifarnib + Phenformin; first compound 0.01 µM) was 0.603, the relative viability (Tipifarnib + Phenformin; first compound 0.03162 µM) was 0.556 and the relative viability (Tipifarnib + Phenformin; first compound 0.1 µM) was 0.553. The relative viability (Tipifarnib + Phenformin; first compound 0.3162 µM) was 0.565 and the relative viability (Tipifarnib + Phenformin; first compound 1 µM) was 0.374.

SW 900 was tested, and the relative viability (Tipifarnib; 0.01 µM) was 0.697, the relative viability (Tipifarnib; 0.03162 µM) was 0.282 and the relative viability (Tipifarnib; 0.1 µM) was 0.486. The relative viability (Tipifarnib; 0.3162 µM) was 0.338, the relative viability (Tipifarnib; 1 µM) was 0.272 and the relative viability (Tipifarnib + Trametinib; first compound 0.01 µM) was 0.517. It also gave a relative viability (Tipifarnib + Trametinib; first compound 0.03162 µM) of 0.465, a relative viability (Tipifarnib + Trametinib; first compound 0.1 µM) of 0.489 and a relative viability (Tipifarnib + Trametinib; first compound 0.3162 µM) of 0.478. It also gave a relative viability (Tipifarnib + Trametinib; first compound 1 µM) of 0.332, a relative viability (Tipifarnib + Palbociclib; first compound 0.01 µM) of 0.454 and a relative viability (Tipifarnib + Palbociclib; first compound 0.03162 µM) of 0.415. The relative viability (Tipifarnib + Palbociclib; first compound 0.1 µM) was 0.347, the relative viability (Tipifarnib + Palbociclib; first compound 0.3162 µM) was 0.332 and the relative viability (Tipifarnib + Palbociclib; first compound 1 µM) was 0.354. It also gave a relative viability (Tipifarnib + Luminespib; first compound 0.01 µM) of 0.188, a relative viability (Tipifarnib + Luminespib; first compound 0.03162 µM) of 0.188 and a relative viability (Tipifarnib + Luminespib; first compound 0.1 µM) of 0.196. It also gave a relative viability (Tipifarnib + Luminespib; first compound 0.3162 µM) of 0.167, a relative viability (Tipifarnib + Luminespib; first compound 1 µM) of 0.185 and a relative viability (Tipifarnib + Foretinib; first compound 0.01 µM) of 0.716. For the same cell line, the relative viability (Tipifarnib + Foretinib; first compound 0.03162 µM) was 0.481, the relative viability (Tipifarnib + Foretinib; first compound 0.1 µM) was 0.381 and the relative viability (Tipifarnib + Foretinib; first compound 0.3162 µM) was 0.39. For the same cell line, the relative viability (Tipifarnib + Foretinib; first compound 1 µM) was 0.412, the relative viability (Tipifarnib + OSI-027; first compound 0.01 µM) was 0.309 and the relative viability (Tipifarnib + OSI-027; first compound 0.03162 µM) was 0.1. It also gave a relative viability (Tipifarnib + OSI-027; first compound 0.1 µM) of 0.27, a relative viability (Tipifarnib + OSI-027; first compound 0.3162 µM) of 0.189 and a relative viability (Tipifarnib + OSI-027; first compound 1 µM) of 0.18. The relative viability (Tipifarnib + Tozasertib; first compound 0.01 µM) was 0.335, the relative viability (Tipifarnib + Tozasertib; first compound 0.03162 µM) was 0.261 and the relative viability (Tipifarnib + Tozasertib; first compound 0.1 µM) was 0.289. It also gave a relative viability (Tipifarnib + Tozasertib; first compound 0.3162 µM) of 0.31, a relative viability (Tipifarnib + Tozasertib; first compound 1 µM) of 0.273 and a relative viability (Tipifarnib + Dasatinib; first compound 0.01 µM) of 0.476. The relative viability (Tipifarnib + Dasatinib; first compound 0.03162 µM) was 0.289, the relative viability (Tipifarnib + Dasatinib; first compound 0.1 µM) was 0.269 and the relative viability (Tipifarnib + Dasatinib; first compound 0.3162 µM) was 0.158. The relative viability (Tipifarnib + Dasatinib; first compound 1 µM) was 0.289, the relative viability (Tipifarnib + Phenformin; first compound 0.01 µM) was 0.405 and the relative viability (Tipifarnib + Phenformin; first compound 0.03162 µM) was 0.216. For the same cell line, the relative viability (Tipifarnib + Phenformin; first compound 0.1 µM) was 0.365, the relative viability (Tipifarnib + Phenformin; first compound 0.3162 µM) was 0.244 and the relative viability (Tipifarnib + Phenformin; first compound 1 µM) was 0.207. For the same cell line, the relative viability (Tipifarnib + AZD7762; first compound 0.01 µM) was 0.464, the relative viability (Tipifarnib + AZD7762; first compound 0.03162 µM) was 0.372 and the relative viability (Tipifarnib + AZD7762; first compound 0.1 µM) was 0.331. The relative viability (Tipifarnib + AZD7762; first compound 0.3162 µM) was 0.292, the relative viability (Tipifarnib + AZD7762; first compound 1 µM) was 0.259 and the relative viability (Tipifarnib + Pemetrexed; first compound 0.01 µM) was 0.397. The relative viability (Tipifarnib + Pemetrexed; first compound 0.03162 µM) was 0.272, the relative viability (Tipifarnib + Pemetrexed; first compound 0.1 µM) was 0.455 and the relative viability (Tipifarnib + Pemetrexed; first compound 0.3162 µM) was 0.303. It also gave a relative viability (Tipifarnib + Pemetrexed; first compound 1 µM) of 0.299, a relative viability (Tipifarnib + Decitabine; first compound 0.01 µM) of 0.387 and a relative viability (Tipifarnib + Decitabine; first compound 0.03162 µM) of 0.39. It also gave a relative viability (Tipifarnib + Decitabine; first compound 0.1 µM) of 0.294, a relative viability (Tipifarnib + Decitabine; first compound 0.3162 µM) of 0.368 and a relative viability (Tipifarnib + Decitabine; first compound 1 µM) of 0.402. For the same cell line, the relative viability (Tipifarnib + Vorinostat; first compound 0.01 µM) was 0.435, the relative viability (Tipifarnib + Vorinostat; first compound 0.03162 µM) was 0.144 and the relative viability (Tipifarnib + Vorinostat; first compound 0.1 µM) was 0.278. The relative viability (Tipifarnib + Vorinostat; first compound 0.3162 µM) was 0.227, the relative viability (Tipifarnib + Vorinostat; first compound 1 µM) was 0.187 and the relative viability (Tipifarnib + Olaparib; first compound 0.01 µM) was 0.508. It also gave a relative viability (Tipifarnib + Olaparib; first compound 0.03162 µM) of 0.545, a relative viability (Tipifarnib + Olaparib; first compound 0.1 µM) of 0.494 and a relative viability (Tipifarnib + Olaparib; first compound 0.3162 µM) of 0.406. It also gave a relative viability (Tipifarnib + Olaparib; first compound 1 µM) of 0.381.
